Source: US20060241172A1, “Benzodioxane and benzodioxolane derivatives and uses thereof” (Wyeth, priority 2005, published 2006)

Tests used:
[1] = molecular target: T1, human 5-hydroxytryptamine-2C (h5-HT2C) receptor (Homo sapiens, UniProt P28335); assay: 5-HT2C binding: [125I]DOI displacement in membranes of transfected CHO cells; settings: read-out: 5-HT2C Binding Ki avg
T1 construct: expressed in transfected cells; host or cells: CHO (Chinese Hamster Ovary) cells; membranes
T1 sequence (P28335 33-458): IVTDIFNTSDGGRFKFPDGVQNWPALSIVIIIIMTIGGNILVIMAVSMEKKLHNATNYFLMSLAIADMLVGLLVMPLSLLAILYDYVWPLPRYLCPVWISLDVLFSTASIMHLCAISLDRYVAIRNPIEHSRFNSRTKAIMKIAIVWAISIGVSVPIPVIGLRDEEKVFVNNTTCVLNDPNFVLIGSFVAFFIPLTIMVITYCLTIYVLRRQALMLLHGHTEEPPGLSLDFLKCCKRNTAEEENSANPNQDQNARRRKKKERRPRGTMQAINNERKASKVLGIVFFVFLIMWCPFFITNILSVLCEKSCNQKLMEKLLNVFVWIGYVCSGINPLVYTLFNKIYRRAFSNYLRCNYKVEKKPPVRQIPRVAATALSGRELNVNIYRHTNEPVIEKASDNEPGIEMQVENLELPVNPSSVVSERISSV

human 5-HT2C receptor = molecular target: T2, human 5-HT2C receptor (Homo sapiens, UniProt P28335); assay: 5-HT2C receptor-stimulated calcium mobilization (FLIPR) in CHO cells; format: cell-based; settings: for Emax: CHO, read-out: 5-HT2C Function EMax (%); for EC50: read-out: 5-HT2C Function EC50
T2 sequence (P28335 33-458): T1 sequence (P28335 33-458)

[2] = test system: male C57BL/6J mice and lean Zucker rats; assay: Obesity Model A: acute food intake after overnight fast, oral dosing; format: in vivo
Procedure: To evaluate acute in vivo efficacy of various compounds, 7 weeks-old male C57BL/6J mice were obtained from The Jackson Laboratory (Bar Harbor, Me.) and 6 weeks-old lean Zucker rats were purchased from Charles River Laboratories (Wilmington, Mass.). Mice and rats were single housed in a temperature-controlled (25° C.) facility with a 12-h light/dark cycle. Animals were allowed normal chow diet (Rodent chow #5001, PharmaServ, Framingham, Mass.) and water ad libitum. After one week acclimation, animals were randomized to vehicle (saline) or treatment groups. Animals were fasted overnight (16 hrs) and orally dosed with vehicle or compounds. Thirty minutes after compound administration, animals were given a weighed amount of food, and food intake was recorded 30 minutes, 1 h, 2 h, 4 h, 7 h and 24 h after refeeding.

| SMILES | Ki [1] [nM] | Emax (human 5-HT2C receptor) [%] | EC50 (human 5-HT2C receptor) [nM] | further results |
| --- | --- | --- | --- | --- |
| Clc1ccc(-c2cccc3c2OC(CNC2CC2)CO3)c(Cl)c1 (stereo not shown) [Compound I-44, N-{[8-(2,4-Dichlorophenyl)-2,3-dihydro-1,4-benzodioxin-2-yl]methyl}cyclopropanamine] | 50 to 200 |  | > 500 |  |
| Clc1ccc(-c2cccc3c2OC(CNC2CCC2)CO3)c(Cl)c1 (stereo not shown) [Compound I-45, N-{[8-(2,4-Dichlorophenyl)-2,3-dihydro-1,4-benzodioxin-2-yl]methyl}cyclobutanamine] | > 200 | 30 | > 500 |  |
| COc1cccc(-c2cc(Cl)cc3c2O[C@@H](CN)CO3)c1OC [Compound I-63, (2S)-[6-Chloro-8-(2,3-dimethoxy-phenyl)-2,3-dihydro-benzo[1,4]dioxin-2-yl]-methyl amine] | < 50 | 50 | > 500 |  |
| NC[C@H]1COc2cc(Cl)cc(-c3ccc(Cl)cc3Cl)c2O1 [Compound I-64, (2S)-[6-Chloro-8-(2,4-dichloro-phenyl)-2,3-dihydro-benzo[1,4]dioxin-2-yl]-methyl amine] | < 50 | 60 | 100 to 500 |  |
| NC[C@H]1COc2cc(Cl)cc(-c3cc(Cl)ccc3Cl)c2O1 [Compound I-67, (2S)-[6-Chloro-8-(2,5-dichloro-phenyl)-2,3-dihydro-benzo[1,4]dioxin-2-yl]-methyl amine] | < 50 | 50 | 100 to 500 |  |
| Cc1cccc(C)c1-c1cc(Cl)cc2c1O[C@@H](CN)CO2 [Compound I-69, (2S)-[6-Chloro-8-(2,6-dimethyl-phenyl)-2,3-dihydro-benzo[1,4]dioxin-2-yl]-methyl amine] | < 50 | 60 | 100 to 500 |  |
| NC[C@H]1COc2ccc(Cl)c(-c3ccccc3Cl)c2O1 [Compound I-70, (2S)-[7-Chloro-8-(2-chloro-phenyl)-2,3-dihydro-benzo[1,4]dioxin-2-yl]-methylamine] | < 50 | 50 | < 100 |  |
| NC[C@H]1COc2ccc(F)c(-c3ccccc3Cl)c2O1 [Compound I-71, (2S)-[8-(2-Chloro-phenyl)-7-fluoro-2,3-dihydro-benzo[1,4]dioxin-2-yl]-methylamine] | < 50 | 40 | < 100 |  |
| COc1ccccc1-c1cc(F)cc2c1OC(CN)O2 (stereo not shown) [Compound I-76, 1-[6-Fluoro-4-(2-methoxyphenyl)-1,3-benzodioxol-2-yl]methanamine] | < 50 | 70 | < 100 |  |
| Cc1ccccc1-c1cc(F)cc2c1OC(CN)O2 (stereo not shown) [Compound I-80, 1-[4-(2-Methyl-phenyl)-6-fluoro-1,3-benzodioxol-2-yl]methanamine] | < 50 | 90 | < 100 |  |
| NCC1Oc2cc(F)cc(-c3cc(Cl)ccc3Cl)c2O1 (stereo not shown) [Compound I-81, 1-[4-(2,5-Dichloro-phenyl)-6-fluoro-1,3-benzodioxol-2-yl]methanamine] | < 50 | 80 | < 100 |  |
| NCC1Oc2cc(F)cc(-c3ccccc3C(F)(F)F)c2O1 (stereo not shown) [Compound I-82, 1-[4-(2-Trifluoromethyl-phenyl)-6-fluoro-1,3-benzodioxol-2-yl]methanamine] | < 50 | 70 | < 100 |  |
| NCC1Oc2cc(F)cc(-c3ccccc3F)c2O1 (stereo not shown) [Compound I-83, 1-[4-(2-Fluoro-phenyl)-6-fluoro-1,3-benzodioxol-2-yl]methanamine] | < 50 | 70 | < 100 |  |
| NCC1Oc2cc(F)cc(-c3ccccc3Cl)c2O1 (stereo not shown) [Compound I-84, 1-[4-(2-Chloro-phenyl)-6-fluoro-1,3-benzodioxol-2-yl]methanamine] | < 50 | 80 | < 100 |  |
| NC[C@H]1Oc2cc(F)cc(-c3c(Cl)cccc3Cl)c2O1 [Compound I-85, 1-[(2S)-4-(2,6-dichlorophenyl)-6-fluoro-1,3-benzodioxol-2-yl]methanamine] | < 50 | 90 | < 100 |  |
| NC[C@@H]1Oc2cc(F)cc(-c3c(Cl)cccc3Cl)c2O1 [Compound I-86, 1-[(2R)-4-(2,6-dichlorophenyl)-6-fluoro-1,3-benzodioxol-2-yl]methanamine] | < 50 | 80 | > 500 |  |
| CNCC1Oc2cc(F)cc(-c3ccccc3Cl)c2O1 (stereo not shown) [Compound I-87, 1-[4-(2-Chlorophenyl)-6-fluoro-1,3-benzodioxol-2-yl]-N-methylmethanamine] | < 50 | 80 | < 100 |  |
| NCC1Oc2cc(Cl)cc(-c3ccccc3Cl)c2O1 (stereo not shown) [Compound I-90, [6-Chloro-4-(2-chloro-phenyl)-benzo[1,3]dioxol-2-yl]-methylamine] | < 50 | 80 | < 100 |  |
| Cc1ccccc1-c1cc(Cl)cc2c1OC(CN)O2 (stereo not shown) [Compound I-91, [6-Chloro-4-(2-methyl-phenyl)-benzo[1,3]dioxol-2-yl]-methylamine] | < 50 | 80 | < 100 |  |
| NCC1Oc2cc(Cl)cc(-c3ccc(Cl)cc3Cl)c2O1 (stereo not shown) [Compound I-96, [6-Chloro-4-(2,4-dichloro-phenyl)-benzo[1,3]dioxol-2-yl]-methylamine] | < 50 | 80 | < 100 |  |
| NCC1Oc2cc(Cl)cc(-c3cc(Cl)ccc3Cl)c2O1 (stereo not shown) [Compound I-98, [6-Chloro-4-(2,5-dichloro-phenyl)-benzo[1,3]dioxol-2-yl]-methylamine] | < 50 | 80 | < 100 |  |

Further lines, with some results ahead:

| Ki [1] [nM] | Emax (human 5-HT2C receptor) [%] | EC50 (human 5-HT2C receptor) [nM] | SMILES | further results |
| --- | --- | --- | --- | --- |
| < 50 | 60 | < 100 | NCC1COc2cccc(-c3ccccc3Cl)c2O1 (stereo not shown) [Compound I-1, {[8-(2-Chlorophenyl)-2,3-dihydro-1,4-benzodioxin-2-yl]methyl}amine] | % Reduction food intake (vs vehicle) ([2]; 10 mpk oral, 0.5 hour after refeeding): 4 ± 8%; % Reduction food intake (vs vehicle) ([2]; 10 mpk oral, 2 hours after refeeding): 6 ± 8%; % Reduction food intake (vs vehicle) ([2]; 10 mpk oral, 4 hours after refeeding): 16 ± 8%; % Reduction food intake (vs vehicle) ([2]; 30 mpk oral, 0.5 hour after refeeding): 60 ± 12%; % Reduction food intake (vs vehicle) ([2]; 30 mpk oral, 2 hours after refeeding): 40 ± 8%; % Reduction food intake (vs vehicle) ([2]; 30 mpk oral, 4 hours after refeeding): 42 ± 5%; % Reduction food intake (vs vehicle) ([2]; 50 mpk oral, 0.5 hour after refeeding): 74 ± 17%; % Reduction food intake (vs vehicle) ([2]; 50 mpk oral, 2 hours after refeeding): 55 ± 13%; % Reduction food intake (vs vehicle) ([2]; 50 mpk oral, 4 hours after refeeding): 48 ± 13% |
| < 50 | 60 | < 100 | NC[C@H]1COc2cc(F)cc(-c3c(Cl)cccc3Cl)c2O1 [Compound I-47, {[(2S)-8-(2,6-Dichlorophenyl)-6-fluoro-2,3-dihydro-1,4-benzodioxin-2-yl]methyl}amine] |  |
| < 50 | 70 | > 500 | C[C@]1(CN)COc2cccc(-c3ccccc3Cl)c2O1 [Compound I-49, {[(2S)-8-(2-Chlorophenyl)-2-methyl-2,3-dihydro-1,4-benzodioxin-2-yl]methyl}amine] |  |
| < 50 | 50 |  | NC[C@H]1COc2cccc(-c3ccccc3C(F)(F)F)c2O1 [Compound I-57, 1-{(2S)-8-[2-(trifluoromethyl)phenyl]-2,3-dihydro-1,4-benzodioxin-2-yl}methanamine] |  |
| < 50 | 50 | < 100 | NC[C@H]1COc2cc(Cl)cc(-c3ccccc3Cl)c2O1 [Compound I-58, (2S)-[6-Chloro-8-(2-chloro-phenyl)-2,3-dihydro-benzo[1,4]dioxin-2-yl]-methylamine] |  |
| < 50 | 40 | 100 to 500 | NC[C@H]1COc2cc(Cl)cc(-c3ccccc3F)c2O1 [Compound I-59, (2S)-[6-Chloro-8-(2-fluoro-phenyl)-2,3-dihydro-benzo[1,4]dioxin-2-yl]-methylamine] |  |
| < 50 | 50 | 100 to 500 | Cc1ccccc1-c1cc(Cl)cc2c1O[C@@H](CN)CO2 [Compound I-60, (2S)-[6-Chloro-8-(2-methyl-phenyl)-2,3-dihydro-benzo[1,4]dioxin-2-yl]-methylamine] |  |
| < 50 | 50 | 100 to 500 | COc1ccccc1-c1cc(Cl)cc2c1O[C@@H](CN)CO2 [Compound I-61, (2S)-[6-Chloro-8-(2-methoxy-phenyl)-2,3-dihydro-benzo[1,4]dioxin-2-yl]-methylamine] |  |
| < 50 | 60 | 100 to 500 | NC[C@H]1COc2cc(Cl)cc(-c3ccccc3C(F)(F)F)c2O1 [Compound I-62, (2S)-[6-Chloro-8-(2-trifluoromethyl-phenyl)-2,3-dihydro-benzo[1,4]dioxin-2-yl]-methylamine] |  |
